# Measured values as given in patent publication US9314510B2, “Human laminin α2 chain LG3 domain and active peptides promoting cell adhesion, spreading, migration, and neurite outgrowth” (SNU R&DB Foundation, priority 2011, dated 2016).
# What was measured:
# PC12 cells [1] = assay: Effect of PKC inhibitor pretreatment on cell adhesion, spreading, migration and stress fiber formation; type: cell-based, rat; settings: Gö6976 2.5 or 5.0 nM, rottlerin 1 or 5 μM, 15 min
# Description: PC12 cells were pretreated with Gö6976 or rottlerin for 15 min at 37° C. and seeded on laminin-, rLG3-, or Ln2-LG3-P2-coated plates and then, cell adhesion, spreading, migration, and stress fiber formation were observed. To observe cell adhesion, the pretreated PC12 cells were incubated for 1 h and to observe cell spreading and stress fiber formation, the pretreated PC12 cells were incubated on the coated plates for 3 h. In addition, to observe cell migration, the pretreated PC12 cells were incubated on the coated plates for 24 h.
# FAK Tyr-397 = assay: Effect of PKC inhibitors on FAK phosphorylation at Tyr-397; type: cell-based, rat; settings: PC12 cells pretreated with 5 nM Gö6976 or 5 μM rottlerin 15 min, laminin, rLG3, Ln2-LG3-P2 plates
# Description: PC12 cells were pretreated with 5 nM Gö6976 or 5 μM rottlerin for 15 min at 37° C. and seeded on laminin-, rLG3-, or Ln2-LG3-P2-coated plates for 15 min in serum-free medium.
# PKCα/β = PKCα/β inhibitor; cited from earlier work
# PC12 cells [2] = assay: Cell viability with PKC inhibitors; settings: at the concentrations used and duration of treatment
# PC12 cells [3] = assay: Effect of PLC inhibitor on cell adhesion and spreading; type: cell-based, rat; settings: 0.5 or 1.0 μM
# PC12 cells [4] = settings: cited from earlier work
# PC12 cells [5] = assay: Effect of Rho-kinase inhibitor on stress fibers; type: cell-based, rat; settings: cells seeded 1 h, then 10 μM for 2 h
# Description: PC12 cells were seeded on glass slide chambers coated with laminin, rLG3, or Ln2-LG3-P2 for 1 h. The cells were treated with […] Y27632, a selective inhibitor of Rho-associated protein kinase, for 2 h in serum-free medium and immunostained with rhodamine-phalloidin.
# PC12 cells [6] = assay: Effect of rottlerin on stress fibers of already spread cells; type: cell-based, rat; settings: 2.5 h incubation, then 5 μM for 30 min
# Description: PC12 cells were seeded on glass slide chambers coated with laminin, rLG3, or Ln2-LG3-P2. After 2.5 h incubation, the cells were treated with 5 μM rottlerin for 30 min and immunostained with rhodamine-phalloidin.
# PKCδ = PKCδ (Homo sapiens, UniProt Q05655); settings: PKCδ inhibitor; cited from earlier work
# fibroblasts = settings: 1-3 μM; cited from earlier work
# Chain of PKCδ (Q05655 whole entry): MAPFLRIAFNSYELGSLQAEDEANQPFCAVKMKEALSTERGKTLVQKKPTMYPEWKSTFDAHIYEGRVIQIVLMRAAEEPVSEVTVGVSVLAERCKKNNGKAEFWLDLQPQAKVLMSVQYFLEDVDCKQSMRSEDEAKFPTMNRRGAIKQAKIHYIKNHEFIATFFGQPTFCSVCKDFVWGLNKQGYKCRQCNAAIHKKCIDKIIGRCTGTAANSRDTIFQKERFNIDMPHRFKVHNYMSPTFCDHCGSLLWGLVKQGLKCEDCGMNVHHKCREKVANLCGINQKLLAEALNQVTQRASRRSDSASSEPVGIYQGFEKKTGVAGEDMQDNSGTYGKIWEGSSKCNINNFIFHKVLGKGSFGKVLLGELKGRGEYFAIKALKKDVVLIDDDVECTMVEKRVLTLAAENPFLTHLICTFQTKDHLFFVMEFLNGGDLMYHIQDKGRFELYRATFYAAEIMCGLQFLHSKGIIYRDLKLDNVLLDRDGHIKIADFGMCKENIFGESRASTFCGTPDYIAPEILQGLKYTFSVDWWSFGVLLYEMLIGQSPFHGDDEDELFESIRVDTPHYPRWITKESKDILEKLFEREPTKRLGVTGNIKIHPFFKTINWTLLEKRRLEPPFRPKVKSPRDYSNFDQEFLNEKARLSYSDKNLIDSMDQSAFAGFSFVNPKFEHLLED
compound,measurement,setting,value
Cn1c2ccccc2c2c3c(c4c5ccccc5n(CCC#N)c4c21)CNC3=O [Gö6976],"spreading of PC12 cells to laminin, rLG3, and Ln2-LG3-P2 after inhibitor pretreatment",PC12 cells [1]; 3 h,not with Gö6976 significantly impaired
same,level of FAK phosphorylation at Tyr-397,FAK Tyr-397,did not affect
same,IC50,PKCα/β,2.3 nM
same,cell viability,PC12 cells [2],did not affect cell viability
COc1ccc2c(c1)CC[C@@H]1[C@@H]2CC[C@]2(C)[C@@H](NCCCCCCN3C(=O)C=CC3=O)CC[C@@H]12 [U73122],cell adhesion to rLG3 and Ln2-LG3-P2 after inhibitor pretreatment,"PC12 cells [3]; 15 min, 1 h",reduced by U73122 in a dose-dependent manner
same,cell spreading to rLG3 and Ln2-LG3-P2 after inhibitor pretreatment,"PC12 cells [3]; 15 min, 3 h",reduced
same,cell adhesion (as printed in legend of FIG. 15B),"PC12 cells [3]; rLG3 and Ln2-LG3-P2 plates, 3 h",reduced by U73122 in a dose-dependent manner
same,α1β1 integrin-mediated PC12 cell adhesion,PC12 cells [4],reduced
C[C@@H](N)[C@H]1CC[C@H](C(=O)Nc2ccncc2)CC1 [Y27632],"stress fibers of PC12 cells to laminin, rLG3, and Ln2-LG3-P2",PC12 cells [5],completely disassembled stress fibers
CC(=O)c1c(O)c(C)c(O)c(Cc2c(O)c3c(c(C(=O)/C=C/c4ccccc4)c2O)OC(C)(C)C=C3)c1O [rottlerin],"adhesion of PC12 cells to laminin, rLG3, and Ln2-LG3-P2 after inhibitor pretreatment",PC12 cells [1]; 1 h,significantly impaired
same,"spreading of PC12 cells to laminin, rLG3, and Ln2-LG3-P2 after inhibitor pretreatment",PC12 cells [1]; 3 h,significantly impaired
same,"stress fiber formation of PC12 cells to laminin, rLG3, and Ln2-LG3-P2 after inhibitor pretreatment",PC12 cells [1]; 3 h,significantly impaired
same,"migration of PC12 cells to laminin, rLG3, and Ln2-LG3-P2 after inhibitor pretreatment",PC12 cells [1]; 24 h,significantly impaired
same,"stress fiber formation of PC12 cells already spread on laminin, rLG3, and Ln2-LG3-P2",PC12 cells [6],did not interfere with stress fiber formation
same,level of FAK phosphorylation at Tyr-397,FAK Tyr-397,reduced
same,IC50,PKCδ,3000 to 6000 nM
same,stress fiber formation of fibroblasts pre-spread on fibronectin,fibroblasts,does not impair stress fiber formation
same,cell viability,PC12 cells [2],did not affect cell viability
